Results taken from US8586707B2, “Stapled peptides and method of synthesis” (The Research Foundation of State University of New York, priority 2008, dated 2013).
Like-named read-outs stand apart in the source and are kept apart here. One block for each molecule: values may come before it. *1 amine or outer side, *2 acyl side, *3 side chain or, on linkers, in order; H or OH if unused. Where a SMILES comes first, the peptide text is derived from it. Bridges are numbered along the chain shown (N, C = ends). [ ]: non-standard residue; d: D form. The star is where a group is joined. X1 = CN(C)c1ccc(N2N=C(C(=O)[*:2])CC2(C)C(=O)[*:1])cc1; X5 = COc1ccc(N2N=C(C(=O)[*:2])CC2(C)C(=O)[*:1])cc1; X3 = COc1ccc(N2N=C(C(=O)[*:2])CC2C(=O)[*:1])cc1; X4 = CC1(C(=O)[*:1])CC(C(=O)[*:2])=NN1c1ccccc1; X2 = COc1ccc(N2N=C(C(=O)*)CC2C(N)=O)cc1; Aib = CC(C)(N)C(=O)O

Experiments:
[1] = the molecule shown is the open-chain precursor, other bond, hv 302 nm (tetrazole-alkene photocycloaddition)
[2] = Far-UV circular dichroism, percent helicity; assay type: physicochemical; conditions: CD in trifluoroethanol at 25 °C, from mean residue ellipticity at 208 nm
Protocol: (§1) To examine the stapling effect on peptide secondary structure, we measured the far-UV circular dichroism (CD) spectra of the stapled peptides in trifluoroethanol (TFE) at 25° C. Because the tetrazoles in the linear peptides are labile to the CD scanning light (short wavelength UV light), we prepared a photo stable control peptide, Ac-Val-Lys(Ac)-Leu-Aib-Val-Lys(Ac)-Leu-NH2 (SEQ ID NO:1) (17; Ac=acetyl; Aib=amino isobutyric acid) as a linear surrogate. […] The percent helicity of 17 was determined to be 53% on the basis of mean residue ellipticity (MRE) at 208 nm. […] To further characterize the stability derived from the stapling, we measured thermal melting point (Tm) of the most helical peptide 16 by following its ellipticity over a wide temperature range (20-85° C.), and compared it to that of the linear photo stable peptide 17 (FIG. 5 (b)).
Circular Dichroism: CD spectra were obtained using 1-mm pathlength cuvettes on a JASCO J-715 instrument at 25° C. The instrument scan range was set at 190 to 250 nm. The scan rate was set at 50 nm/min, the response time was set at 2 sec, and the bandwidth was set at 1 nm. The spectra were the averages of two scans. For the measurement of percent helicity, peptides were dissolved in 100% trifluoroethanol (TFE); for the Tm determination, 20% TFE/H2O were used as the solvent. The percent helicity was calculated by using the following equation: […]

[3] = Thermal melting point by CD ellipticity over 20-85 °C; assay type: physicochemical; conditions: for melting temperature (Tm): 100 μM peptide in 20% TFE/H2O, 20-85 °C
Protocol: as §1
Circular Dichroism: CD spectra were obtained using 1-mm pathlength cuvettes on a JASCO J-715 instrument at 25° C. The instrument scan range was set at 190 to 250 nm. The scan rate was set at 50 nm/min, the response time was set at 2 sec, and the bandwidth was set at 1 nm. The spectra were the averages of two scans. For the measurement of percent helicity, peptides were dissolved in 100% trifluoroethanol (TFE); for the Tm determination, 20% TFE/H2O were used as the solvent. The percent helicity was calculated by using the following equation:
[formula] The melting temperature (Tm) was determined by following a reported procedure. Briefly, a sample of 100 μM peptide in 20% TFE/H2O in an 1-mm pathlength cuvette was scanned at various temperatures from 20° C. to 85° C. (5-degree intervals) with an equilibration time of 3 min and a heating rate of 60° C./hr. The θ222 MRE data was normalized by setting the maximum θ222 MRE to 100% and the minimum θ222 MRE to 0.

[4] = system: HeLa cells; assay: Cellular uptake study by fluorescent microscopy; assay type: cell-based; conditions: 100 μM peptide, 4 hours, 37 °C, DAPI filter
Protocol: To assess whether the stapled peptides are capable of penetrating cell membrane, we took advantage of the intrinsic fluorescence of the pyrazoline cross-linkers and monitored the stapled peptide cellular uptake by fluorescent microscopy. […] After incubating HeLa cells with 100 μM of peptide 13 for 4 hours in a 37° C. CO2 incubator, the cells were washed twice with PBS before fixing with 4% paraformaldehyde and the subcellular distribution of peptide 13 was examined by fluorescent microscopy.
Cellular Uptake Study: HeLa cells cultured on cover slips were treated with 100 μM of peptide 13 or control peptide 18 in 2% DMSO serum-free DMEM medium for 4 hr in a 37° C., 5% CO2 incubator. In preparation for fixation, medium was aspirated and the cells were washed twice with PBS. The cover slips were treated to a freshly prepared 4% paraformaldehyde/PBS solution for 10˜15 min, washed twice with PBS, and quenched with 50 mM NH4Cl for 10 minutes. After washing with PBS twice, the cover-slip was flipped and placed on top of microscopy glass containing in situ-frame and PBS buffer to make a sealed sample chamber. The images were acquired on a Zeiss Axioimager motorized fluorescence microscope. DAPI filter (ex 365 nm, em 445±25 nm) was used in acquiring fluorescence images. All image acquisitions and processing were performed under identical conditions.

[5] = the molecule shown is the open-chain precursor, other bond, 28-membered ring, hv 302 nm, 10 min, 0.15 mM
[6] = 28-membered ring, MeCN, 0.15 mM

Molecule: Ac-Val-Lys(acryloyl)-Leu-Aib-Val-Lys(2-(4-dimethylaminophenyl)-2H-tetrazole-5-carbonyl)-Leu-NH2?
ring closure, yield after HPLC [1, 6]: 64%

Molecule: Ac-Leu-Thr-Phe-Lys(methacryloyl)-His-Tyr-Trp-Ala-Gln-Leu-Lys(N-(4-methoxy)phenyl-tetrazole)-Ser-NH2
ring closure, yield after HPLC [1]: 74%

percent helicity [2]: 51%
Molecule: COc1ccc(N2N=C3CC2(C)C(=O)NCCCC[C@H](NC(=O)[C@@H](NC(C)=O)C(C)C)C(=O)N[C@@H](CC(C)C)C(=O)NC(C)(C)C(=O)N[C@@H](C(C)C)C(=O)N[C@H](C(=O)N[C@@H](CC(C)C)C(N)=O)CCCCNC3=O)cc1 (some centres unmarked) [Peptide 14] (Ac-VKL[Aib]VKL-NH2; linker 2-6 via X5)

melting temperature (Tm) [3]: 63 °C
increase in Tm versus linear peptide 17 ([3]; stapled 16 vs linear 17): 15 °C
percent helicity [2]: 64%
Molecule: CC(=O)N[C@H](C(=O)N[C@H]1CCCCNC(=O)C2(C)CC(=NN2c2ccc(N(C)C)cc2)C(=O)NCCCC[C@@H](C(=O)N[C@@H](CC(C)C)C(N)=O)NC(=O)[C@H](C(C)C)NC(=O)C(C)(C)NC(=O)[C@H](CC(C)C)NC1=O)C(C)C (some centres unmarked) [Peptide 16] (Ac-VKL[Aib]VKL-NH2; linker 2-6 via X1)

melting temperature (Tm) [3]: 48 °C
percent helicity [2]: 53%
Molecule: CC(=O)NCCCC[C@H](NC(=O)[C@@H](NC(C)=O)C(C)C)C(=O)N[C@@H](CC(C)C)C(=O)NC(C)(C)C(=O)N[C@H](C(=O)N[C@@H](CCCCNC(C)=O)C(=O)N[C@@H](CC(C)C)C(N)=O)C(C)C [Peptide 17, Ac-Val-Lys(Ac)-Leu-Aib-Val-Lys(Ac)-Leu-NH2, reference compound] (Ac-VK(Ac)L[Aib]VK(Ac)L-NH2)

Molecule: Ac-Val-Lys(acryloyl)-Leu-Aib-Val-Lys(2-(4-methoxyphenyl)-2H-tetrazole-5-carbonyl)-Leu-NH2?
ring closure, yield after HPLC [1, 6]: 64%

Molecule: COc1ccc(N2N=C3CC2C(=O)NCCCC[C@H](NC(=O)[C@@H](NC(C)=O)C(C)C)C(=O)N[C@@H](CC(C)C)C(=O)NC(C)(C)C(=O)N[C@@H](C(C)C)C(=O)N[C@H](C(=O)N[C@@H](CC(C)C)C(N)=O)CCCCNC3=O)cc1 (some centres unmarked) [Peptide 13] (Ac-VKL[Aib]VKL-NH2; linker 2-6 via X3)
cellular uptake (intracellular fluorescence) [4]: punctuated fluorescence was observed in discrete cytoplasmic regions within HeLa cells

Molecule: Ac-Val-Orn(methacryloyl)-Leu-Aib-Val-Orn(4-(2-phenyl-2H-tetrazol-5-yl)benzoyl)-Leu-NH2?
ring closure, yield after HPLC ([1]; 30-membered ring, MeCN, 0.15 mM): 15%

Molecule: Ac-Val-Lys(methacryloyl)-Leu-Aib-Val-Lys(2-(4-dimethylaminophenyl)-2H-tetrazole-5-carbonyl)-Leu-NH2?
ring closure, conversion ([5]; DCM): 43%
ring closure, conversion ([5]; EtOAc): 86%
ring closure, conversion ([5]; EtOH): 92%
ring closure, conversion ([5]; MeCN): 87%
ring closure, conversion ([5]; iPrOH): 88%
ring closure, yield after HPLC [1, 6]: 94%

Molecule: Ac-Val-Lys(methacryloyl)-Leu-Aib-Val-Lys(2-(4-methoxyphenyl)-2H-tetrazole-5-carbonyl)-Leu-NH2?
ring closure, yield after HPLC [1, 6]: 53%

Molecule: Ac-Val-Lys(methacryloyl)-Leu-Aib-Val-Lys(4-(2-phenyl-2H-tetrazol-5-yl)benzoyl)-Leu-NH2?
ring closure, yield after HPLC ([1]; 32-membered ring, MeCN, 0.15 mM): 38%

percent helicity [2]: 51%
Molecule: CC(=O)N[C@H](C(=O)N[C@H]1CCCCNC(=O)C2(C)CC(=NN2c2ccccc2)C(=O)NCCCC[C@@H](C(=O)N[C@@H](CC(C)C)C(N)=O)NC(=O)[C@H](C(C)C)NC(=O)C(C)(C)NC(=O)[C@H](CC(C)C)NC1=O)C(C)C (some centres unmarked) [Peptide 11] (Ac-VKL[Aib]VKL-NH2; linker 2-6 via X4)

Molecule: COc1ccc(N2N=C(C(=O)NCCCC[C@H](NC(=O)[C@@H](NC(=O)C(C)(C)NC(=O)[C@H](CC(C)C)NC(=O)[C@H](CCCCNC(C)=O)NC(=O)[C@@H](NC(C)=O)C(C)C)C(C)C)C(=O)N[C@@H](CC(C)C)C(N)=O)CC2C(N)=O)cc1 (stereo partly drawn) [Peptide 18, Ac-Val-Lys(Pyr)-Leu-Aib-Val-Lys(Ac)-Leu-NH2, reference compound] (Ac-VK(Ac)L[Aib]VK(X2)L-NH2)
cellular uptake (intracellular fluorescence) [4]: did not yield cellular fluorescent pattern

Molecule: Ac-Val-Orn(methacryloyl)-Leu-Aib-Val-Orn(2-phenyl-2H-tetrazole-5-carbonyl)-Leu-NH2?
ring closure, yield after HPLC ([1]; 26-membered ring, MeCN, 0.15 mM): 15%

Molecule: Ac-Val-Lys(methacryloyl)-Leu-Aib-Val-Lys(2-phenyl-2H-tetrazole-5-carbonyl)-Leu-NH2?
ring closure, yield after HPLC [1, 6]: 41%
